# Test system: Wnt pathway
# Assay: Wnt activity reporter assay (SP5 promoter-luciferase in SW480 cells)
# Assay type: cell-based
# Conditions: Homo sapiens, SP5 promoter firefly luciferase reporter, read-out: Wnt inhibition
# From the text: The above synthesized compounds were screened using the assay procedure for Wnt activity described below.
# Reporter cell lines can be generated by stably transducing cells of cancer cell lines (e.g., colon cancer) with a lentiviral construct that include a wnt-responsive promoter driving expression of the firefly luciferase gene.
# Lentiviral constructs can be made in which the SP5 promoter, a promoter having eight TCF/LEF binding sites derived from the SP5 promoter, is linked upstream of the firefly luciferase gene. The lentiviral constructs can also include a hygromycin resistance gene as a selectable marker. The SP5 promoter construct can be used to transduce SW480 cells, a colon cancer cell line having a mutated APC gene that generates a truncated APC protein, leading to de-regulated accumulation of β-catenin.
# Cultured SW480 cells bearing a reporter construct can be distributed at approximately 10,000 cells per well into 96 well or 384 well plates. Compounds from a small molecule compound library can then be added to the wells in half-log dilutions using a ten micromolar top concentration. A series of control wells for each cell type receive only buffer and compound solvent. Twenty-four to forty hours after the addition of compound, reporter activity for luciferase can be assayed, for example, by addition of the BrightGlo luminescence reagent (Promega) and the Victor3 plate reader (Perkin Elmer). Readings can be normalized to DMSO only treated cells, and normalized activities can then be used in the IC50 calculations.
row,SMILES,IC50
1,"c1cncc(-c2cnc3[nH]nc(-c4nc5c(-c6cccs6)cccc5[nH]4)c3c2)c1 [Compound 888, 5-(Pyridin-3-yl)-3-(4-(thiophen-2-yl)-1H-benzo[d]imidazol-2-yl)-1H-pyrazolo[3,4-b]pyridine]",12 nM
2,"CC(C)(C)CC(=O)Nc1cncc(-c2cnc3[nH]nc(-c4nc5ccccc5[nH]4)c3c2)c1 [Compound 774, N-(5-(3-(1H-Benzo[d]imidazol-2-yl)-1H-pyrazolo[3,4-b]pyridin-5-yl)pyridin-3-yl)-3,3-dimethylbutanamide]",200 nM
3,"Fc1cc(-c2cncc3[nH]c(-c4n[nH]c5ncc(-c6cccnc6)cc45)nc23)cc(N2CCOCC2)c1 [Compound 13, 4-(3-Fluoro-5-(2-(5-(pyridin-3-yl)-1H-pyrazolo[3,4-b]pyridin-3-yl)-3H-imidazo[4,5-c]pyridin-7-yl)phenyl)morpholine]",172 nM
4,"Nc1cncc(-c2cnc3[nH]nc(-c4nc5ccccc5[nH]4)c3c2)c1 [Compound 761, 5-(3-(1H-Benzo[d]imidazol-2-yl)-1H-pyrazolo[3,4-b]pyridin-5-yl)pyridin-3-amine]",320 nM
5,"O=C(Nc1cncc(-c2cnc3[nH]nc(-c4nc5c(N6CCCCC6)cccc5[nH]4)c3c2)c1)C1CCCC1 [Compound 701, N-(5-(3-(4-(Piperidin-1-yl)-1H-benzo[d]imidazol-2-yl)-1H-pyrazolo[3,4-b]pyridin-5-yl)pyridin-3-yl)cyclopentanecarboxamide]",625 nM
6,"CN(C)Cc1cncc(-c2cnc3[nH]nc(-c4nc5c(-c6ccsc6)cccc5[nH]4)c3c2)c1 [Compound 797, N,N-Dimethyl-1-(5-(3-(4-(thiophen-3-yl)-1H-benzo[d]imidazol-2-yl)-1H-pyrazolo[3,4-b]pyridin-5-yl)pyridin-3-yl)methanamine]",32 nM
7,"Fc1cccc(-c2cncc3[nH]c(-c4n[nH]c5ncc(-c6cncc(CN7CCCC7)c6)cc45)nc23)c1 [Compound 27, 3-(7-(3-Fluorophenyl)-3H-imidazo[4,5-c]pyridin-2-yl)-5-(5-(pyrrolidin-1-ylmethyl)pyridin-3-yl)-1H-pyrazolo[3,4-b]pyridine]",1780 nM
8,"CN1CCN(c2cncc(-c3cnc4[nH]nc(-c5nc6c(-c7cccc(F)c7)cncc6[nH]5)c4c3)c2)CC1 [Compound 4, 3-(7-(3-Fluorophenyl)-3H-imidazo[4,5-c]pyridin-2-yl)-5-(5-(4-methylpiperazin-1-yl)pyridin-3-yl)-1H-pyrazolo[3,4-b]pyridine]",333 nM
9,"CC(C)C(=O)Nc1cncc(-c2cnc3[nH]nc(-c4nc5c(-c6ccsc6)cccc5[nH]4)c3c2)c1 [Compound 793, N-(5-(3-(4-(Thiophen-3-yl)-1H-benzo[d]imidazol-2-yl)-1H-pyrazolo[3,4-b]pyridin-5-yl)pyridin-3-yl)isobutyramide]",16 nM
10,"c1cncc(-c2cncc3[nH]c(-c4n[nH]c5ncc(-c6cncc(CN7CCCCC7)c6)cc45)nc23)c1 [Compound 178, 5-(5-(Piperidin-1-ylmethyl)pyridin-3-yl)-3-(7-(pyridin-3-yl)-3H-imidazo[4,5-c]pyridin-2-yl)-1H-pyrazolo[3,4-b]pyridine]",392 nM
11,"CN(C)CCNc1cncc(-c2cnc3[nH]nc(-c4nc5c(-c6cccc(F)c6)cncc5[nH]4)c3c2)c1 [Compound 6, N1-(5-(3-(7-(3-Fluorophenyl)-3H-imidazo[4,5-c]pyridin-2-yl)-1H-pyrazolo[3,4-b]pyridin-5-yl)pyridin-3-yl)-N2,N2-dimethylethane-1,2-diamine]",550 nM
12,"c1ccc(CNCc2cncc(-c3cnc4[nH]nc(-c5nc6c(-c7ccncc7)cccc6[nH]5)c4c3)c2)cc1 [Compound 654, N-Benzyl-1-(5-(3-(4-(pyridin-4-yl)-1H-benzo[d]imidazol-2-yl)-1H-pyrazolo[3,4-b]pyridin-5-yl)pyridin-3-yl)methanamine]",1500 nM
13,"c1cc(-c2ccsc2)c2nc(-c3n[nH]c4ncc(-c5cncc(CN6CCCCC6)c5)cc34)[nH]c2c1 [Compound 799, 5-(5-(Piperidin-1-ylmethyl)pyridin-3-yl)-3-(4-(thiophen-3-yl)-1H-benzo[d]imidazol-2-yl)-1H-pyrazolo[3,4-b]pyridine]",82 nM
14,"O=C(Nc1cncc(-c2cnc3[nH]nc(-c4nc5c(-c6cccnc6)cncc5[nH]4)c3c2)c1)C1CCCCC1 [Compound 185, N-(5-(3-(7-(Pyridin-3-yl)-3H-imidazo[4,5-c]pyridin-2-yl)-1H-pyrazolo[3,4-b]pyridin-5-yl)pyridin-3-yl)cyclohexanecarboxamide]",1320 nM
15,"CC(C)N(Cc1cc(F)cc(-c2cncc3[nH]c(-c4n[nH]c5ncc(-c6cccnc6)cc45)nc23)c1)C(C)C [Compound 17, N-(3-Fluoro-5-(2-(5-(pyridin-3-yl)-1H-pyrazolo[3,4-b]pyridin-3-yl)-3H-imidazo[4,5-c]pyridin-7-yl)benzyl)-N-isopropylpropan-2-amine]",550 nM
16,"O=C(Nc1cncc(-c2cnc3[nH]nc(-c4nc5c(-c6ccsc6)cccc5[nH]4)c3c2)c1)C1CC1 [Compound 803, N-(5-(3-(4-(Thiophen-3-yl)-1H-benzo[d]imidazol-2-yl)-1H-pyrazolo[3,4-b]pyridin-5-yl)pyridin-3-yl)cyclopropanecarboxamide]",17 nM
17,"CCCCC(=O)Nc1cncc(-c2cnc3[nH]nc(-c4nc5c(N6CCN(C)CC6)cncc5[nH]4)c3c2)c1 [Compound 305, N-(5-(3-(7-(4-Methylpiperazin-1-yl)-3H-imidazo[4,5-c]pyridin-2-yl)-1H-pyrazolo[3,4-b]pyridin-5-yl)pyridin-3-yl)pentanamide]",7350 nM
18,"Fc1cccc(-c2cncc3[nH]c(-c4n[nH]c5ncc(-c6cncc(CN7CCCCC7)c6)cc45)nc23)c1 [Compound 28, 3-(7-(3-Fluorophenyl)-3H-imidazo[4,5-c]pyridin-2-yl)-5-(5-(piperidin-1-ylmethyl)pyridin-3-yl)-1H-pyrazolo[3,4-b]pyridine]",720 nM
19,"CN(C)Cc1cncc(-c2cnc3[nH]nc(-c4nc5c(-c6cccnc6)cccc5[nH]4)c3c2)c1 [Compound 621, N,N-Dimethyl-1-(5-(3-(4-(pyridin-3-yl)-1H-benzo[d]imidazol-2-yl)-1H-pyrazolo[3,4-b]pyridin-5-yl)pyridin-3-yl)methanamine]",36 nM
20,"O=C(Nc1cncc(-c2cnc3[nH]nc(-c4nc5c(-c6cccs6)cncc5[nH]4)c3c2)c1)C1CC1 [Compound 458, N-(5-(3-(7-(Thiophen-2-yl)-3H-imidazo[4,5-c]pyridin-2-yl)-1H-pyrazolo[3,4-b]pyridin-5-yl)pyridin-3-yl)cyclopropanecarboxamide]",22 nM
21,"Fc1ccc(-c2cncc3[nH]c(-c4n[nH]c5ncc(-c6cncc(CNCC7CCCC7)c6)cc45)nc23)cc1 [Compound 142, 1-Cyclopentyl-N-((5-(3-(7-(4-fluorophenyl)-3H-imidazo[4,5-c]pyridin-2-yl)-1H-pyrazolo[3,4-b]pyridin-5-yl)pyridin-3-yl)methyl)methanamine]",645 nM
22,"CC(C)(C)C(=O)Nc1cncc(-c2cnc3[nH]nc(-c4nc5c(-c6ccoc6)cncc5[nH]4)c3c2)c1 [Compound 373, N-(5-(3-(7-(Furan-3-yl)-3H-imidazo[4,5-c]pyridin-2-yl)-1H-pyrazolo[3,4-b]pyridin-5-yl)pyridin-3-yl)pivalamide]",70 nM
23,"FC1(F)CCN(Cc2cncc(-c3cnc4[nH]nc(-c5nc6c(-c7ccccn7)cccc6[nH]5)c4c3)c2)C1 [Compound 680, 5-(5-((3,3-Difluoropyrrolidin-1-yl)methyl)pyridin-3-yl)-3-(4-(pyridin-2-yl)-1H-benzo[d]imidazol-2-yl)-1H-pyrazolo[3,4-b]pyridine]",170 nM
24,"Fc1ccccc1-c1cccc2[nH]c(-c3n[nH]c4ncc(-c5cccnc5)cc34)nc12 [Compound 590, 3-(4-(2-Fluorophenyl)-1H-benzo[d]imidazol-2-yl)-5-(pyridin-3-yl)-1H-pyrazolo[3,4-b]pyridine]",20 nM
25,"c1ccc(CNCc2cncc(-c3cnc4[nH]nc(-c5nc6ccccc6[nH]5)c4c3)c2)cc1 [Compound 781, 1-(5-(3-(1H-Benzo[d]imidazol-2-yl)-1H-pyrazolo[3,4-b]pyridin-5-yl)pyridin-3-yl)-N-benzylmethanamine]",1440 nM
26,"Fc1cccc(-c2cccc3[nH]c(-c4n[nH]c5ncc(-c6cncc(CN7CCCCC7)c6)cc45)nc23)c1 [Compound 554, 3-(4-(3-Fluorophenyl)-1H-benzo[d]imidazol-2-yl)-5-(5-(piperidin-1-ylmethyl)pyridin-3-yl)-1H-pyrazolo[3,4-b]pyridine]",200 nM
27,"c1csc(-c2cncc3[nH]c(-c4n[nH]c5ncc(-c6cncc(CNCC7CCCC7)c6)cc45)nc23)c1 [Compound 463, 1-Cyclopentyl-N-((5-(3-(7-(thiophen-2-yl)-3H-imidazo[4,5-c]pyridin-2-yl)-1H-pyrazolo[3,4-b]pyridin-5-yl)pyridin-3-yl)methyl)methanamine]",98 nM
28,"Nc1cncc(-c2cnc3[nH]nc(-c4nc5c(N6CCCCC6)cncc5[nH]4)c3c2)c1 [Compound 238, 5-(3-(7-(Piperidin-1-yl)-3H-imidazo[4,5-c]pyridin-2-yl)-1H-pyrazolo[3,4-b]pyridin-5-yl)pyridin-3-amine]",350 nM
29,"CCCC(=O)Nc1cncc(-c2cnc3[nH]nc(-c4nc5c(-c6ccccc6F)cccc5[nH]4)c3c2)c1 [Compound 602, N-(5-(3-(4-(2-Fluorophenyl)-1H-benzo[d]imidazol-2-yl)-1H-pyrazolo[3,4-b]pyridin-5-yl)pyridin-3-yl)butyramide]",18 nM
